According to PubChem BioAssay (NCI):
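Method: 48-hour compound exposure of cells in 96-well plates, five concentrations, linear interpolation of endpoints. GI50 marks 50% less growth. At the TGI there is no net growth.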

Columns and labels:
Assay in all cases: inhibition of tumour cell growth, NCI panel, 48 h
PC-3 prostate = tested on: PC-3 prostate
NCI-H460 lung = tested on: NCI-H460 lung
DU-145 prostate = tested on: DU-145 prostate
ACHN renal = tested on: ACHN renal
SK-OV-3 ovarian = tested on: SK-OV-3 ovarian
RPMI-8226 leukemia = tested on: RPMI-8226 leukemia
BT-549 breast = tested on: BT-549 breast
HL-60(TB) leukemia = tested on: HL-60(TB) leukemia
786-0 renal = tested on: 786-0 renal
MOLT-4 leukemia = tested on: MOLT-4 leukemia
UACC-62 melanoma = tested on: UACC-62 melanoma
HOP-62 NSCLC = tested on: HOP-62 NSCLC
KM12 colon = tested on: KM12 colon
IGROV1 ovarian = tested on: IGROV1 ovarian
HS 578T breast = tested on: HS 578T breast
COLO 205 colon = tested on: COLO 205 colon
CAKI-1 renal = tested on: CAKI-1 renal
EKVX NSCLC = tested on: EKVX NSCLC
OVCAR-8 ovarian = tested on: OVCAR-8 ovarian
MALME-3M melanoma = tested on: MALME-3M melanoma
NCI-H23 lung = tested on: NCI-H23 lung
MCF7 breast = tested on: MCF7 breast
SF-268 CNS = tested on: SF-268 CNS
NCI-H522 lung = tested on: NCI-H522 lung
HCT-15 colon = tested on: HCT-15 colon
SF-295 CNS = tested on: SF-295 CNS
HCT-116 colon = tested on: HCT-116 colon
SK-MEL-5 melanoma = tested on: SK-MEL-5 melanoma
K-562 leukemia = tested on: K-562 leukemia
UO-31 renal = tested on: UO-31 renal
OVCAR-4 ovarian = tested on: OVCAR-4 ovarian
A549 NSCLC = tested on: A549 NSCLC
OVCAR-5 ovarian = tested on: OVCAR-5 ovarian
HOP-92 NSCLC = tested on: HOP-92 NSCLC
SN12C renal = tested on: SN12C renal
U251 CNS = tested on: U251 CNS
T-47D breast = tested on: T-47D breast
HCC-2998 colon = tested on: HCC-2998 colon
RXF 393 renal = tested on: RXF 393 renal
SW-620 colon = tested on: SW-620 colon
SF-539 CNS = tested on: SF-539 CNS
SK-MEL-2 melanoma = tested on: SK-MEL-2 melanoma
MDA-MB-231 breast = tested on: MDA-MB-231 breast
LOX IMVI melanoma = tested on: LOX IMVI melanoma
HT29 colon = tested on: HT29 colon
SR leukemia = tested on: SR leukemia
SNB-19 CNS = tested on: SNB-19 CNS
TK-10 renal = tested on: TK-10 renal
NCI-H226 lung = tested on: NCI-H226 lung
SNB-75 CNS = tested on: SNB-75 CNS
UACC-257 melanoma = tested on: UACC-257 melanoma
SK-MEL-28 melanoma = tested on: SK-MEL-28 melanoma
MDA-MB-435 = tested on: MDA-MB-435

Compound: COc1cccc2c1-c1ccccc1C2=O
- GI50 (PC-3 prostate): 2.22 µM
- TGI (PC-3 prostate): > 100 µM
- GI50 (NCI-H460 lung): 0.628 µM
- TGI (NCI-H460 lung): 11.5 µM
- GI50 (DU-145 prostate): 2.9 µM
- TGI (DU-145 prostate): > 100 µM
- GI50 (ACHN renal): 0.783 µM
- TGI (ACHN renal): > 100 µM
- GI50 (SK-OV-3 ovarian): 1.03 µM
- TGI (SK-OV-3 ovarian): 7.49 µM
- GI50 (RPMI-8226 leukemia): 3.7 µM
- TGI (RPMI-8226 leukemia): > 100 µM
- GI50 (BT-549 breast): 1.17 µM
- TGI (BT-549 breast): > 100 µM
- GI50 (HL-60(TB) leukemia): 2.19 µM
- TGI (HL-60(TB) leukemia): 6.37 µM
- GI50 (786-0 renal): 3.15 µM
- TGI (786-0 renal): > 100 µM
- GI50 (MOLT-4 leukemia): 4.25 µM
- TGI (MOLT-4 leukemia): > 100 µM
- GI50 (UACC-62 melanoma): 0.467 µM
- TGI (UACC-62 melanoma): > 100 µM
- GI50 (HOP-62 NSCLC): 1.65 µM
- TGI (HOP-62 NSCLC): > 100 µM
- GI50 (KM12 colon): 3.42 µM
- TGI (KM12 colon): > 100 µM
- GI50 (IGROV1 ovarian): 1.46 µM
- TGI (IGROV1 ovarian): > 100 µM
- GI50 (HS 578T breast): 0.815 µM
- TGI (HS 578T breast): > 100 µM
- GI50 (COLO 205 colon): 1.91 µM
- TGI (COLO 205 colon): 4.62 µM
- GI50 (CAKI-1 renal): 0.543 µM
- TGI (CAKI-1 renal): > 100 µM
- GI50 (EKVX NSCLC): 9.49 µM
- TGI (EKVX NSCLC): > 100 µM
- GI50 (OVCAR-8 ovarian): 3.33 µM
- TGI (OVCAR-8 ovarian): > 100 µM
- GI50 (MALME-3M melanoma): 6.54 µM
- TGI (MALME-3M melanoma): > 100 µM
- GI50 (NCI-H23 lung): 4.2 µM
- TGI (NCI-H23 lung): > 100 µM
- GI50 (MCF7 breast): 1.14 µM
- TGI (MCF7 breast): > 100 µM
- GI50 (SF-268 CNS): 3.17 µM
- TGI (SF-268 CNS): > 100 µM
- GI50 (NCI-H522 lung): 0.276 µM
- TGI (NCI-H522 lung): 4.33 µM
- GI50 (HCT-15 colon): 2.71 µM
- TGI (HCT-15 colon): > 100 µM
- GI50 (SF-295 CNS): 0.352 µM
- TGI (SF-295 CNS): > 100 µM
- GI50 (HCT-116 colon): 3.14 µM
- TGI (HCT-116 colon): 17.4 µM
- GI50 (SK-MEL-5 melanoma): 2.31 µM
- TGI (SK-MEL-5 melanoma): 13.5 µM
- GI50 (K-562 leukemia): 0.801 µM
- TGI (K-562 leukemia): > 100 µM
- GI50 (UO-31 renal): 4.46 µM
- TGI (UO-31 renal): > 100 µM
- GI50 (OVCAR-4 ovarian): 2.69 µM
- TGI (OVCAR-4 ovarian): > 100 µM
- GI50 (A549 NSCLC): 2.65 µM
- TGI (A549 NSCLC): > 100 µM
- GI50 (OVCAR-5 ovarian): 5.32 µM
- TGI (OVCAR-5 ovarian): > 100 µM
- GI50 (HOP-92 NSCLC): 4.6 µM
- TGI (HOP-92 NSCLC): 85.2 µM
- GI50 (SN12C renal): 4.85 µM
- TGI (SN12C renal): > 100 µM
- GI50 (U251 CNS): 2.9 µM
- TGI (U251 CNS): > 100 µM
- GI50 (T-47D breast): 6.7 µM
- TGI (T-47D breast): > 100 µM
- GI50 (HCC-2998 colon): 3.35 µM
- TGI (HCC-2998 colon): 47.1 µM
- GI50 (RXF 393 renal): 0.329 µM
- TGI (RXF 393 renal): 49.2 µM
- GI50 (SW-620 colon): 2.09 µM
- TGI (SW-620 colon): > 100 µM
- GI50 (SF-539 CNS): 1.31 µM
- TGI (SF-539 CNS): 5.76 µM
- GI50 (SK-MEL-2 melanoma): 2.49 µM
- TGI (SK-MEL-2 melanoma): > 100 µM
- GI50 (MDA-MB-231 breast): 3.25 µM
- TGI (MDA-MB-231 breast): 48.3 µM
- GI50 (LOX IMVI melanoma): 2.24 µM
- TGI (LOX IMVI melanoma): > 100 µM
- GI50 (HT29 colon): 3.03 µM
- TGI (HT29 colon): 12.5 µM
- GI50 (SR leukemia): 3.66 µM
- TGI (SR leukemia): > 100 µM
- GI50 (SNB-19 CNS): 2.52 µM
- TGI (SNB-19 CNS): > 100 µM
- GI50 (TK-10 renal): 9.8 µM
- TGI (TK-10 renal): > 100 µM
- GI50 (NCI-H226 lung): 1.19 µM
- TGI (NCI-H226 lung): > 100 µM
- GI50 (SNB-75 CNS): 0.431 µM
- TGI (SNB-75 CNS): > 100 µM
- GI50 (UACC-257 melanoma): > 100 µM
- TGI (UACC-257 melanoma): > 100 µM
- GI50 (SK-MEL-28 melanoma): 3.85 µM
- TGI (SK-MEL-28 melanoma): > 100 µM
- GI50 (MDA-MB-435): 0.225 µM
- TGI (MDA-MB-435): 0.79 µM
